# Source: patent US7485631B2, “Phorboxazole compounds and methods of their preparation” (The Trustees of the University of Pennsylvania, priority 2005, dated 2009)
# Read-outs that look alike come from different tables or passages of the source.
# Columns and labels:
# [1] = system: NCl-H460 (non-small lung); assay: Cancer growth inhibition, non-small lung cancer cell line; type: cell-based; conditions: Homo sapiens
# Procedure: (§1) With (+)-phorboxazole A (XVIII) and the eight phorboxazole analogues in hand, biological evaluation against a diverse panel of human cancer cell lines was conducted in the laboratory of Professor George R. Pettit at the Cancer Research Institute of Arizona State University. Specifically, cancer growth inhibition efficacy was evaluated against the human cancer cell lines; BXP-3 (pancreatic), MCF-3 (breast), F-268 (CNS), NCl-H460 (non-small lung), KM20L2 (colon), and DU-145 (prostate) (Smith, et al. Org. Lett. 2005, 7, 4403; Smith, et al. Org. Lett. 2005, 8, 797).
# [2] = system: human cancer cell lines BXP-3, MCF-3, F-268, NCl-H460, KM20L2, DU-145; assay: Cancer growth inhibition, average over the six human cancer cell line panel; type: cell-based; conditions: for GI50: Homo sapiens, average over six human cancer cell lines; for tumor cell growth inhibitory activity compared with (+)-phorboxazole A (in words): summary of the six cell line panel
# Procedure: as §1
# KM20L2 (colon) = assay: Cancer growth inhibition, colon cancer cell line; type: cell-based; conditions: Homo sapiens, KM-20L2
# Procedure: as §1
# F-268 (CNS) = assay: Cancer growth inhibition, CNS cancer cell line; type: cell-based; conditions: Homo sapiens
# Procedure: as §1
# BXP-3 (pancreatic) = assay: Cancer growth inhibition, pancreatic cancer cell line; type: cell-based; conditions: Homo sapiens
# Procedure: as §1
# [3] = system: National Cancer Institute's (NCI) panel of 60 human tumor cell lines; conditions: mean over the entire NCI 60 human tumor cell line panel; cited from earlier work
# [4] = other bond, K2CO3/18-crown-6, toluene, 25.0 °C
# MCF-3 (breast) = assay: Cancer growth inhibition, breast cancer cell line; type: cell-based; conditions: Homo sapiens
# Procedure: as §1
compound,measurement,setting,value
"C=C1C[C@@H]2C[C@@H]3C[C@@H](O)C[C@@H](O3)c3coc(n3)/C=C/C[C@H]3O[C@@H](/C(C)=C/c4coc(C[C@]5(O)C[C@H](OC)C[C@H]([C@H](O)/C=C(C)/C=C/[C@@H](CCC)OC)O5)n4)[C@H](C)[C@@H](OC(=O)/C=C\C[C@@H](C1)O2)[C@H]3C [XVIIb, C(45-46)-Alkyl-Phorboxazole]",GI50,[1],1.6 nM
same,GI50,[2],3.1 nM
same,tumor cell growth inhibitory activity compared with (+)-phorboxazole A (in words),[2],activity comparable to that of (+)-phorboxazole A
same,GI50,KM20L2 (colon),1.3 nM
"C=C1C[C@@H]2C[C@@H]3C[C@@H](O)C[C@@H](O3)c3coc(n3)/C=C/C[C@H]3O[C@@H](/C(C)=C/c4coc(C[C@]5(O)C[C@H](OC)C[C@H]([C@H](O)/C=C(C)/C=C/[C@@H](C/C=C/Cl)OC)O5)n4)[C@H](C)[C@@H](OC(=O)/C=C\C[C@@H](C1)O2)[C@H]3C [XVIId, C(45-46)-E-Chloroalkenyl-Phorboxazole]",GI50,[1],0.64 nM
same,tumor cell growth inhibitory activity compared with (+)-phorboxazole A (in words),[2],activity greater than that of (+)-phorboxazole A
same,GI50,F-268 (CNS),0.49 nM
same,GI50,BXP-3 (pancreatic),0.62 nM
same,GI50,KM20L2 (colon),0.38 nM
"C#CC[C@H](/C=C/C(C)=C/[C@@H](O)[C@H]1C[C@@H](OC)C[C@@](O)(Cc2nc(/C=C(\C)[C@@H]3O[C@@H]4C/C=C/c5nc(co5)[C@H]5C[C@H](O)C[C@@H](C[C@H]6CC(=C)C[C@H](C/C=C/C(=O)O[C@@H]([C@H]4C)[C@H]3C)O6)O5)co2)O1)OC [XVIIaE, E-C(2-3)-C(45-46)-Alkynyl-Phorboxazole]",GI50,[2],281 nM
"C=C1C[C@@H]2C[C@@H]3C[C@@H](O)C[C@@H](O3)c3coc(n3)/C=C/C[C@H]3O[C@@H](/C(C)=C/c4coc(C[C@]5(O)C[C@H](OC)C[C@H]([C@H](O)/C=C(C)/C=C/[C@@H](C/C=C/Br)OC)O5)n4)[C@H](C)[C@@H](OC(=O)/C=C\C[C@@H](C1)O2)[C@H]3C [XVIII, Phorboxazole A, reference compound]",GI50,[2],5 nM
same,GI50,[3],1.58 nM
C=C1C[C@@H]2C[C@@H]3CCO[C@@H](O3)c3coc(n3)/C=C/C[C@H]3O[C@@H](/C(C)=C/I)[C@H](C)[C@@H](OC(=O)/C=C\C[C@@H](C1)O2)[C@H]3C,"ring closure, yield of all isomers","[4]; from C=C1C[C@H](C[C@@H]2CCO[C@H](c3coc(/C=C/C[C@H]4O[C@@H](/C(C)=C/I)[C@H](C)[C@@H](OC(=O)CP(=O)(OCC(F)(F)F)OCC(F)(F)F)[C@H]4C)n3)O2)O[C@@H](CC=O)C1, 0.74 mM, 2.0 h",86%
"C#CC[C@H](/C=C/C(C)=C/[C@@H](O)[C@H]1C[C@@H](OC)C[C@@](O)(Cc2nc(/C=C(\C)[C@@H]3O[C@@H]4C/C=C/c5nc(co5)[C@H]5OCC[C@@H](C[C@H]6CC(=C)C[C@H](C/C=C\C(=O)O[C@@H]([C@H]4C)[C@H]3C)O6)O5)co2)O1)OC [XVIIfZ, Z-C(2-3) C(11-15)-Acetal Alkynyl Phorboxazole]",GI50,[2],34.6 nM
same,GI50,MCF-3 (breast),18.3 nM
same,GI50,KM20L2 (colon),11.8 nM
"C=CC[C@H](/C=C/C(C)=C/[C@@H](O)[C@H]1C[C@@H](OC)C[C@@](O)(Cc2nc(/C=C(\C)[C@@H]3O[C@@H]4C/C=C/c5nc(co5)[C@H]5C[C@H](O)C[C@@H](C[C@H]6CC(=C)C[C@H](C/C=C\C(=O)O[C@@H]([C@H]4C)[C@H]3C)O6)O5)co2)O1)OC [XVIIc, C(45-46)-Alkenyl-Phorboxazole]",GI50,[2],4.1 nM
same,tumor cell growth inhibitory activity compared with (+)-phorboxazole A (in words),[2],activity comparable to that of (+)-phorboxazole A
"C#CC[C@H](/C=C/C(C)=C/[C@@H](O)[C@H]1C[C@@H](OC)C[C@@](O)(Cc2nc(/C=C(\C)[C@@H]3O[C@@H]4C/C=C/c5nc(co5)[C@H]5C[C@H](O)C[C@@H](C[C@H]6CC(=C)C[C@H](C/C=C\C(=O)O[C@@H]([C@H]4C)[C@H]3C)O6)O5)co2)O1)OC [XVIIaZ, C(45-46)-Alkynyl-Phorboxazole]",GI50,[2],5.2 nM
same,tumor cell growth inhibitory activity compared with (+)-phorboxazole A (in words),[2],activity comparable to that of (+)-phorboxazole A
"C#CC[C@H](/C=C/C(C)=C/[C@@H](O)[C@H]1C[C@@H](OC)C[C@@](O)(Cc2nc(/C=C(\C)[C@@H]3O[C@@H]4C/C=C/c5nc(co5)[C@H]5OCC[C@@H](C[C@H]6CC(=C)C[C@H](C/C=C/C(=O)O[C@@H]([C@H]4C)[C@H]3C)O6)O5)co2)O1)OC [XVIIfE, E-C(2-3) C(11-15)-Acetal Alkynyl Phorboxazole]",GI50,[2],944 nM
"C=C1C[C@@H]2C[C@H]3C[C@@H](O)C[C@H](O3)c3coc(n3)/C=C\C[C@H]3O[C@@H](/C(C)=C/c4coc(C[C@]5(O)C[C@H](OC)C[C@H]([C@H](O)/C=C(C)/C=C/[C@@H](C/C=C/Br)OC)O5)n4)[C@H](C)[C@@H](OC(=O)/C=C\C[C@@H](C1)O2)[C@H]3C [(+)-Phorboxazole B, Phorboxazole B]",GI50,[3],1.58 nM
C=C1C[C@@H]2C[C@@H]3C[C@@H](O[Si](C)(C)C(C)(C)C)C[C@@H](O3)c3coc(n3)/C=C/C[C@H]3O[C@@H](/C(C)=C/I)[C@H](C)[C@@H](OC(=O)/C=C\C[C@@H](C1)O2)[C@H]3C,"ring closure, yield of all isomers","[4]; from C=C1C[C@H](C[C@@H]2C[C@@H](O[Si](C)(C)C(C)(C)C)C[C@H](c3coc(/C=C/C[C@H]4O[C@@H](/C(C)=C/I)[C@H](C)[C@@H](OC(=O)CP(=O)(OCC(F)(F)F)OCC(F)(F)F)[C@H]4C)n3)O2)O[C@@H](CC=O)C1, 0.706 mM, 3.0 h",96%
"C=CC[C@H](/C=C/C(C)=C/[C@@H](O)[C@H]1C[C@@H](OC)C[C@](Cc2nc(/C=C(\C)[C@@H]3O[C@H](CCO)[C@H](C)[C@H](OCc4ccc(OC)c(OC)c4)[C@H]3C)co2)(OC)O1)OC [XVIIe, C(45-46)-Alkenyl-C(22-26)-Central Tetrahydropyran Phorboxazole]",activity across the entire cell line panel (in words),[2]; six human cancer cell lines,inactive
